Results from patent US10087192B2, “2-(het)aryl-substituted fused bicyclic heterocycle derivatives as pesticides” (BAYER CROPSCIENCE AKTIENGESELLSCHSAFT, priority 2015, dated 2018).

Tests used:
Type in all cases: in vivo
[1] = test system: Spodoptera frugiperda; experiment: Spodoptera frugiperda spray test (cotton leaves); conditions: 100 ppm, after 7 days
Description: Spodoptera frugiperda—Spray Test
Solvent: 7 parts by weight of dimethylformamide
(§1) Emulsifier: alkylaryl polyglycol ether
(§2) To produce a suitable preparation of active compound, 1 part by weight of active compound is dissolved using the stated parts by weight of solvent and made up with water containing an emulsifier concentration of 1000 ppm until the desired concentration is attained. To produce further test concentrations, the preparation is diluted with emulsifier-containing water. If the addition of ammonium salts or/and penetrants is required, these are each added in a concentration of 1000 ppm to the formulation solution.
Cotton leaves (Gossypium hirsutum) are sprayed with an active compound formulation of the desired concentration and populated with caterpillars of the armyworm (Spodoptera frugiperda).
After 7 days, the kill in % is determined. 100% means that all the caterpillars have been killed; 0% means that none of the caterpillars have been killed.

[2] = test system: Lucilia cuprina; experiment: Lucilia cuprina test; conditions: 100 ppm, after 2 days, L1 larvae
Description: (§3) Solvent: dimethyl sulphoxide
(§4) To produce a suitable preparation of active compound, 10 mg of active compound are mixed with 0.5 ml of dimethyl sulphoxide, and the concentrate is diluted with water to the desired concentration.
About 20 L1 larvae of the Australian sheep blowfly (Lucilia cuprina) are transferred into a test vessel containing minced horsemeat and the active compound preparation of the desired concentration.
After 2 days, the kill in % is determined. 100% means that all the larvae have been killed; 0% means that no larvae have been killed.

[3] = test system: Ctenocephalides felis; experiment: Ctenocephalides felis in vitro contact test with adult cat fleas; conditions: 5 μg/cm^2 (500 g/ha), after 48 h
Description: Ctenocephalides felis—In Vitro Contact Tests with Adult Cat Fleas
(§5) For the coating of the test tubes, 9 mg of active compound are first dissolved in 1 ml of acetone p.a. and then diluted to the desired concentration with acetone p.a. 250 μl of the solution are distributed homogeneously on the inner walls and the base of a 25 ml test tube by turning and rocking on an orbital shaker (rocking rotation at 30 rpm for 2 h). With 900 ppm active compound solution and internal surface 44.7 cm^2, given homogeneous distribution, an area-based dose of 5 μg/cm^2 is achieved.
After the solvent has evaporated off, the tubes are populated with 5-10 adult cat fleas (Ctenocephalides felis), sealed with a perforated plastic lid and incubated in a horizontal position at room temperature and ambient humidity. After 48 h, efficacy is determined. To this end, the test tubes are stood upright and the fleas are knocked to the base of the tube. Fleas which remain motionless at the base or move in an uncoordinated manner are considered to be dead or moribund.
100% efficacy means that all the fleas were dead or moribund. 0% efficacy means that no fleas were harmed.

[4] = test system: Myzus persicae; experiment: Myzus persicae spray test (Chinese cabbage leaf discs); conditions: 500 g/ha, after 6 days
Description: Myzus persicae—Spray Test Solvent: 78 parts by weight of acetone • • 1.5 parts by weight of dimethylformamide Emulsifier: alkylaryl polyglycol ether […] To produce further test concentrations, the preparation is diluted with emulsifier-containing water. Discs of Chinese cabbage leaves (Brassica pekinensis) infested by all stages of the green peach aphid (Myzus persicae) are sprayed with an active compound preparation of the desired concentration.

[5] = test system: Meloidogyne incognita; experiment: Meloidogyne incognita test; conditions: 20 ppm, after 14 days, lettuce
Description: Meloidogyne incognita Test
Solvent: 125.0 parts by weight of acetone
To produce a suitable preparation of active compound, 1 part by weight of active compound is mixed with the stated amount of solvent and the concentrate is diluted with water to the desired concentration.
Vessels are filled with sand, active compound solution, an egg/larvae suspension of the southern root-knot nematode (Meloidogyne incognita) and lettuce seeds. The lettuce seeds germinate and the plants develop. The galls develop on the roots.
After 14 days, the nematicidal efficacy in % is determined by the formation of galls. 100% means that no galls were found; 0% means that the number of galls on the treated plants corresponds to the untreated control.

[6] = test system: Ctenocephalides felis; experiment: Ctenocephalides felis oral test; conditions: 100 ppm in citrated cattle blood, after 2 days
Description: Ctenocephalides felis—Oral Test Solvent: dimethyl sulphoxide […] Dilution with citrated cattle blood gives the desired concentration. About 20 unfed adult cat fleas (Ctenocephalides felis) are placed into a chamber which is closed at the top and bottom with gauze. A metal cylinder whose bottom end is closed with parafilm is placed onto the chamber. The cylinder contains the blood/active compound preparation, which can be imbibed by the fleas through the parafilm membrane.

[7] = test system: Phaedon cochleariae; experiment: Phaedon cochleariae spray test; conditions: 500 g/ha, after 7 days, larvae on Chinese cabbage leaf discs
Description: Phaedon cochleariae—Spray Test
Solvent: 78.0 parts by weight of acetone • • 1.5 parts by weight of dimethylformamide
as §1
as §2, with “water.” for “water. If the addition of ammonium salts or/and penetrants is required, these are each added in a concentration of 1000 ppm to the formulation solution.”
After 7 days, the efficacy in % is determined. 100% means that all the beetle larvae have been killed; 0% means that no beetle larvae have been killed.

[8] = test system: Spodoptera frugiperda; experiment: Spodoptera frugiperda spray test (maize leaf discs); conditions: 500 g/ha, after 7 days, caterpillars on maize leaf discs
Description: Spodoptera frugiperda—Spray Test Solvent: 78.0 parts by weight of acetone • • 1.5 parts by weight of dimethylformamide Emulsifier: alkylaryl polyglycol ether […] To produce further test concentrations, the preparation is diluted with emulsifier-containing water. Leaf discs of maize (Zea mays) are sprayed with an active compound preparation of the desired concentration and, after drying, populated with caterpillars of the armyworm (Spodoptera frugiperda).

[9] = test system: Musca domestica; experiment: Musca domestica test; conditions: 20 ppm, after 2 days, adult houseflies
Description: as §3, §4
Vessels containing a sponge treated with sugar solution and the active compound preparation of the desired concentration are populated with 10 adult houseflies (Musca domestica).
After 2 days, the kill in % is determined. 100% means that all of the flies have been killed; 0% means that none of the flies have been killed.

[10] = test system: Boophilus microplus; experiment: Boophilus microplus injection test; conditions: 20 μg/animal, assessed after 7 days
Description: Boophilus microplus—Injection Test
as §3
To produce a suitable preparation of active compound, 10 mg of active compound are mixed with 0.5 ml of solvent and the concentrate is diluted with solvent to the desired concentration.
1 μl of the active compound solution is injected into the abdomen of 5 engorged adult female cattle ticks (Boophilus microplus). The animals are transferred into dishes and kept in a climate-controlled room.
Efficacy is assessed after 7 days by laying of fertile eggs. Eggs which are not visibly fertile are stored in a climate-controlled cabinet until the larvae hatch after about 42 days. An efficacy of 100% means that none of the ticks has laid any fertile eggs; 0% means that all the eggs are fertile.

[11] = test system: Rhipicephalus sanguineus; experiment: Rhipicephalus sanguineus in vitro contact test with adult brown dog ticks; conditions: 5 μg/cm^2 (500 g/ha), after 48 h
Description: Rhipicephalus sanguineus—In Vitro Contact Tests with Adult Brown Dog Ticks
as §5
After the solvent has evaporated off, the tubes are populated with 5-10 adult dog ticks (Rhipicephalus sanguineus), sealed with a perforated plastic lid and incubated in a horizontal position in the dark at room temperature and ambient humidity. After 48 h, efficacy is determined. To this end, the ticks are knocked to the floor of the tube and incubated on a hotplate at 45-50° C. for not more than 5 min. Ticks which remain motionless on the floor or move in such an uncoordinated manner that they are unable to deliberately avoid the heat by climbing upwards are considered to be dead or moribund.
An efficacy of 100% means that all the ticks were dead or moribund. 0% efficacy means that none of the ticks had been harmed.

SMILES	efficacy (kill) [1] [%]	efficacy (kill) [2] [%]	efficacy [3] [%]	efficacy [4] [%]	nematicidal efficacy (formation of galls) [5] [%]	efficacy (kill) [6] [%]	efficacy [7] [%]	efficacy [8] [%]	efficacy (kill) [9] [%]	efficacy (laying of fertile eggs) [10] [%]	efficacy [11] [%]
CCS(=O)(=O)c1ccc(-n2cnc(I)c2)nc1-c1nc2cc(C(F)(F)F)ncc2n1C [Example 14]	100	100	100	100	100	100	100				
CCS(=O)(=O)c1ccc(-n2nccn2)nc1-c1nc2cc(C(F)(F)F)ncc2n1C [Example 17]		100	100	90		98	100	100	85	100	100
CCS(=O)(=O)c1ccc(-n2cncn2)nc1-c1nc2cc(C(F)(F)F)ncc2n1C [Example 32]	100			100			100				
